Data published in patent US20060116325A1, “Methods and compositions for inhibiting hiv-coreceptor interactions” (priority 2001, published 2006).

What was measured:
CXCR4 [1] = target: T1, CXCR4 (Homo sapiens, UniProt P61073); test: Ca2+ mobilization in THP-1 cells in response to SDF-1α (fura-2); format: cell-based; settings: peptide 500 μM preincubated, SDF-1α 100 ng/ml, FIG. 6
Protocol: FIGS. 6A through 6D depict the effect of peptide pre-treatment on the mobilization of intracellular Ca^2+ in THP-1 cells in response to SDF-1α. Cells loaded with fura-2 were preincubated with peptide 15K (FIG. 6C), 15D (FIG. 6B) and 15CW (FIG. 6D) at a final concentration of 500 μM for 3 min prior to stimulation with SDF-1α (100 ng/ml).
THP-1 cells (12×10^6/ml in RPMI 1640 containing 10% FSB) were loaded in the presence of 5 μM fura-2 AM (Molecular Probes, Eugene, Oreg.) at 22° C. for 30 min in the dark. Subsequently, cells were washed three times and resuspended (10^6 cells/ml) in the buffer containing 138 mM sodium chloride, 6 mM potassium chloride, 1 mM calcium chloride, 1 mM magnesium chloride, 10 mM HEPES, pH 7.4,5 mM glucose, and 0.1% bovine serum albumin. 1.93 ml of loaded cells was transferred into a quartz cuvette. 50 μl of a peptide stock solution (2×10^−2 M) was added to the cells, and after 3 min of incubation 20 μl of human SDF-1α (10 μg/ml, PeproTech) was added to a stirred cuvette. The measurements were performed using luminescence spectrophotometer LS50 B (Perkin-Elmer). Ca^2+ mobilization in the cells in response to SDF-1α was measured by analysis of the ratio of fluorescence emitted at 510 nm after sequential excitation at 340 and 380 nm.
The increase of intracellular Ca^2+ concentration mediated by a chemokine receptor in response to a cognate chemokine is a reliable assay for measurement of chemokine agonist activity. The human monocytic cell line THP-1 expresses a high level of CXCR4 and responds well to SDF-1α stimulation (FIG. 6A), so these cells were used to determine whether peptides 15D and 15K could block the activation of CXCR4.

CXCR4 [2] = target: T1, CXCR4; test: Competition with 125I-SDF-1α binding to CEMx174 cells; parameters: host or cells: CEMx174 (174xCEM); settings: room temperature, 0.1% sodium azide, FIG. 7B, 7C
Protocol: (§1) FIGS. 7A through 7C depicts the inhibition of chemokine receptor ligand binding by peptide pre-treatment. FIG. 7A. Effect of pre-treatment with peptides 15K and 15D on the binding of MIP-1β to SupT1/CCR5 cells; FIG. 7B. Effect of pre-treatment with peptides 15K and 1SD on the binding of SDF-1α to CEMx174 cells; and FIG. 7C. Effect of pre-treatment with 15K and control peptide 15GIG on the binding of SDF-1α to CEmx174 cells. Binding studies were performed as described in Materials and Methods.
Binding assays were performed with HEK-CCR5 or HEK CXCR4 in triplicate by adding unlabeled competitor (anti-coreceptor binding peptide or control chemokine) and radiolabeled chemokine, 0.2 ng/ml (^125I-MIP-1β or SDF-1α, specific activity 2000 Ci/mmol, NEN Life Science Products) to a cell suspension (4×10^5 cells in 200 μl) in RPMI 1640 supplemented with 1% bovine serum albumin and 25 mM HEPES pH 8.0 (binding medium). Cells were then incubated at 22° C. for 40 min with continuous rotation. After incubation cells were transferred to the tubes containing 800 μl of 10% sucrose in PBS and harvested by centrifugation. The supernatant was aspirated and the cell-associated radioactivity was measured using a 1272 Wallac gamma counter. Binding assays were performed with the 174xCEM and Sup-T1 cells expressing CCR5 in duplicates by adding unlabeled competitor (peptide or control chemokine) and radiolabeled chemokine, 0.2 ng/ml (^125I-MIP-1β or ^125I-SDF-1α, specific activity 2000 Ci/mmol, NEN life Science Products) to 300 μl cell suspension (4×10^6 cells/ml) in RPMI 1640 supplemented with 1% bovine serum albumin, 0.1% sodium azide and 25 mM HEPES pH 8.0 (binding medium). Cells were then incubated at 22° C. for 30 min with continuous rotation. After incubation cells were transferred to the tubes containing 800 μl of 10% sucrose in PBS and harvested by centrifugation, the supematant was aspirated and the cell-associated radioactivity was measured using a 1272 Wallac gamma counter. The data were analyzed by nonlinear regression using the computer program GraphPad Prizm 3.0. […]

CCR5 [3] = target: T2, CCR5 (Homo sapiens, UniProt P51681); test: Competition with 125I-MIP-1β binding to SupT1/CCR5 cells; parameters: expressed in transfected cells; host or cells: Sup-T1; settings: room temperature, 0.1% sodium azide, FIG. 7A
Protocol: as §1
Binding assays were performed with HEK-CCR5 or HEK CXCR4 in triplicate by adding unlabeled competitor (anti-coreceptor binding peptide or control chemokine) and radiolabeled chemokine, 0.2 ng/ml (^125I-MIP-1β or SDF-1α, specific activity 2000 Ci/mmol, NEN Life Science Products) to a cell suspension (4×10^5 cells in 200 μl) in RPMI 1640 supplemented with 1% bovine serum albumin and 25 mM HEPES pH 8.0 (binding medium). […] The supernatant was aspirated and the cell-associated radioactivity was measured using a 1272 Wallac gamma counter. […] After incubation cells were transferred to the tubes containing 800 μl of 10% sucrose in PBS and harvested by centrifugation, the supematant was aspirated and the cell-associated radioactivity was measured using a 1272 Wallac gamma counter. The data were analyzed by nonlinear regression using the computer program GraphPad Prizm 3.0. […]

CCR5 [4] = target: T2, CCR5; test: Binding of anti-CCR5 antibody 2D7 to HEK293/CCR5 cells (flow cytometry); parameters: expressed in transfected cells; host or cells: HEK-293; settings: 0.1 mM peptide, 45 min 22° C.
Protocol: CEMx174 cells were pelleted and resuspended at 10^6 cells/ml in PBS containing 1% BSA and 0.1% sodium azide (FACS buffer). Cells were then preincubated with designated concentrations of peptides or SDF-1-α (1 μg/ml) at 22° C. for 60 min. FITC-labeled anti-human CXCR4 antibody (clone 12G5, BD PharMingen, San Diego, Calif.) was added to the cells per the manufactures instructions and further incubated at 22° C. for 40 minutes. Cells were extensively washed with FACS buffer and analyzed using a FACS Calibur flowcytometer (Becton Dickinson). HEK/CCR5 cells were suspended in Dulbecco's PBS containing 1% FCS and 0.05% NaN3 (10^4 cells in 100 μl) and incubated with or without 5 μg of MIP-1β (PeproTech, Rocky Hill, N.J.), 0.1 mM peptide 15D or 15K for 45 min at 22° C. Cells were then treated with FITC-conjugated anti-human CCR5 antibody (2D7; BD PharMingen, San Diego, Calif.), and incubated for 30 min at 22° C. Cells were washed twice, and analyzed using a FACScan flow cytometer (Becton Dickinson Immunocytometry Systems, San Jose, Calif.).
The effect of the exemplary peptides 15K and 15D on the binding of 2D7 antibodies to CCR5 was assayed to further evaluate the mechanism of anti-coreceptor activity of the peptides. […]
The effects of peptides 15D and 15K on 2D7 antibody binding to HEK293/CCR5 cells were analyzed by flow cytometry.

T1 sequence (P61073 whole entry): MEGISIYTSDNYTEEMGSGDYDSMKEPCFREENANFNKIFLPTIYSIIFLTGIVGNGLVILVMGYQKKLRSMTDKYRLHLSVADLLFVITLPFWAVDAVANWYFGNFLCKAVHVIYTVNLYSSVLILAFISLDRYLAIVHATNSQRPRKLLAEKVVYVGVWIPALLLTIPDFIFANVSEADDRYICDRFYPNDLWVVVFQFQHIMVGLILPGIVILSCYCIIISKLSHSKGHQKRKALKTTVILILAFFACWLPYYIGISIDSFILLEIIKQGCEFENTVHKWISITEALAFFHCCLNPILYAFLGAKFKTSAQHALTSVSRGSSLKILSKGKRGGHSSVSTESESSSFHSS
T2 sequence (P51681 whole entry): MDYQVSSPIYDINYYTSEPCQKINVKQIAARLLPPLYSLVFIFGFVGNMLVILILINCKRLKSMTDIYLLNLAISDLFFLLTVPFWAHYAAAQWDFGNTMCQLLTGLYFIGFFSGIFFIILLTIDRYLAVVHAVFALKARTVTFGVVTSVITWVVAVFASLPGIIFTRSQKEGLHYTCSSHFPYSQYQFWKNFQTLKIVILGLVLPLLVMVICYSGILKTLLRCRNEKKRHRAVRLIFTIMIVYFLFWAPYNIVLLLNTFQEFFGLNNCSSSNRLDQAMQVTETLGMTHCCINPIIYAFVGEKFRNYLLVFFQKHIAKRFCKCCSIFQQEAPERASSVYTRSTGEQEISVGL

Substance: I R K A H C N I S R A D W N D [Peptide 15D]
- inhibition of Ca2+ mobilization in response to SDF-1α (CXCR4 [1]): completely inhibited
- inhibition of SDF-1α binding to CXCR4 (CXCR4 [2]): competitively inhibited chemokine binding
- inhibition of MIP-1β binding to CCR5 (CCR5 [3]): competitively inhibited chemokine binding
- effect on 2D7 anti-CCR5 antibody binding (CCR5 [4]): No significant effect

Substance: IRKAHCNISRAKWND [Peptide 15K]
- inhibition of Ca2+ mobilization in response to SDF-1α (CXCR4 [1]): inhibited Ca^2+ mobilization although less efficiently than 15D
- inhibition of SDF-1α binding to CXCR4 (CXCR4 [2]): competitively inhibited chemokine binding
- inhibition of MIP-1β binding to CCR5 (CCR5 [3]): competitively inhibited chemokine binding
- effect on 2D7 anti-CCR5 antibody binding (CCR5 [4]): No significant effect
